PMC11089204 (Frontiers in Pharmacology, 2024)
Where “and” joins values, the source holds several entries; their conditions need not be identical. Equal entries are not always repeated. Where two headings read alike, the source gives them in different places.

Key:
[1] = tested on: human liver microsomes (HLM); test: Psilocin incubation with human liver microsomes (CYP inhibition assay); assay type: in vitro ADME; details: for metabolite concentration formed from psilocin / psilocin concentration (mean ± SD): 1,000 nM psilocin with HLM; for metabolite concentration formed from psilocin: 240 min incubation; for psilocin concentration: absence of HLM
Experimental: (§1) Corning UltraPool human liver microsomes (HLM) 150 (20 mg/mL), human intestinal microsomes (HIM) pool (10 mg/mL) as well as recombinant human CYP enzymes (with P450 oxidoreductase, OR) including CYP1A2+OR (0.5 nmol), CYP2B6+OR (0.5 nmol), CYP2C8+OR (1.0 nmol), CYP2C9*1+OR (1 nmol), CYP2C19+OR (0.5 nmol), CYP2D6*1+OR (0.5 nmol), CYP2E1+OR + cytochrome b5 (1 nmol), CYP3A4+OR + cytochrome b5 (0.5 nmol), MAO-A (5 mg/mL), MAO-B (5 mg/mL), and UGT1A10 (5 mg/mL) were purchased from Corning Life Sciences B.V (Amsterdam, Netherlands). All microsomes and recombinant enzyme solutions were aliquoted and stored at −80 °C until further use.
(§2) The total volume of the reaction mixture was 500 μL. […] Samples were either directly analyzed by liquid chromatography tandem mass spectrometry (LC-MS/MS) or briefly stored at −20°C until analysis.

[2] = target: T1, recombinant CYP2D6 (Homo sapiens, UniProt P10635); test: Incubation with recombinant CYP2D6 enzymes; assay type: in vitro ADME
T1 construct: purchased Corning Life Sciences B.V
Experimental: as §1, §2

[3] = target: T2, recombinant CYP3A4 (Homo sapiens, UniProt P08684); test: Incubation with recombinant CYP3A4 enzymes; assay type: in vitro ADME; details: for formation of metabolite from psilocin: rec. CYP3A4
T2 construct: purchased Corning Life Sciences B.V
Experimental: as §1, §2

[4] = target: T3, MAO-A in human liver microsomes (HLM) (Homo sapiens, UniProt P21397); test: Monoamine oxidase A inhibition in human liver microsomes; assay type: in vitro ADME; details: for biotransformation on incubation with HLM: 1,000 nM 4-HIAA or 4-HTP incubated with HLM; for metabolite concentration formed from psilocin (mean ± SD) / metabolite formation from psilocin in presence of clorgyline: 1,000 nM psilocin; for metabolite concentration formed from psilocin (mean ± SD): HLM alone, t = 240 min; for metabolite formation from psilocin in presence of clorgyline: HLM with MAO-A inhibitor clorgyline
T3 construct: tissue Corning Life Sciences B.V; host or cells: pooled human liver microsomes
T3 sequence (P21397 1-527): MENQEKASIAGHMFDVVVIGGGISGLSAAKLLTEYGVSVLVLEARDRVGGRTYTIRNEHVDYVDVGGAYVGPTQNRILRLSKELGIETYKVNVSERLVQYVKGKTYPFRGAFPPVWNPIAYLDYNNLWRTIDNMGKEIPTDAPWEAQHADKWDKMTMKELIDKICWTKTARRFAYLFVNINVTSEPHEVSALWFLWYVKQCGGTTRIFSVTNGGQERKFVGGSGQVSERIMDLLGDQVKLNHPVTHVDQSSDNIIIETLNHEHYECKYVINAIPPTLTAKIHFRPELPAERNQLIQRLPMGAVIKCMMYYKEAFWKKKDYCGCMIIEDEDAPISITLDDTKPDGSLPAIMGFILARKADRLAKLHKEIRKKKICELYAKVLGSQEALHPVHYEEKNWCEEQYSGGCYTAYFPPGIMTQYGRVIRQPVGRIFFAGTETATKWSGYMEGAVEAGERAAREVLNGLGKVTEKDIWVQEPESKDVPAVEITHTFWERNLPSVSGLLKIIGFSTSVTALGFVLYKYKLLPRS

[5] = target: T4, recombinant MAO-A (Homo sapiens, UniProt P21397); test: Incubation with recombinant MAO-A enzymes; assay type: in vitro ADME; details: for metabolite concentration formed from psilocin: 300 min; for metabolite formation from psilocin in presence of clorgyline: rec. MAO-A with clorgyline
T4 construct: purchased Corning Life Sciences B.V
T4 sequence (P21397 1-527): T3 sequence (P21397 1-527)
Experimental: as §1
The MAO inhibition assay was based on the assay described in section 2.5.1 and performed identically if not otherwise stated.

[6] = target: T5, human 5-HT1A receptor (Homo sapiens, UniProt P08908); test: 5-HT activation potency (IP1 accumulation), 5-HT1A; assay type: cell-based; parameters: expressed in transfected cells
T5 sequence (P08908 1-422): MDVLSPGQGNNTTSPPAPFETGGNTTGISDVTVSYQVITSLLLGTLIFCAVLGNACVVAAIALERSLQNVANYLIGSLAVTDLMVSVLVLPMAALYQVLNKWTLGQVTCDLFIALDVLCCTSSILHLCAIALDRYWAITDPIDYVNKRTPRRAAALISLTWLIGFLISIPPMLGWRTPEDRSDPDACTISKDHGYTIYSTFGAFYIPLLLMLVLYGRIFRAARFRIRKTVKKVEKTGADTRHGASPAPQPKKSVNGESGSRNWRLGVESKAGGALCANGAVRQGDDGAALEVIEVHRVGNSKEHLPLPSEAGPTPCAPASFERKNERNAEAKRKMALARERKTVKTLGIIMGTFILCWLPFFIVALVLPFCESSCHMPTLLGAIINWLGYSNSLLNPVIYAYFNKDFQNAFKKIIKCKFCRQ
Experimental: . […] NIH/3T3 cells stably expressing the human 5-HT1A, 5-HT2A, and 5-HT2B receptors were seeded at a density of 3,000 cells (5-HT1A and 5-HT2A) or 4,000 cells (5-HT2B) in 384-well plates using Opti-MEM medium from Gibco (ThermoFisher, Life Technologies, Zug, Switzerland). Subsequently, the test compounds were introduced, and the plates were incubated for 90 min at 37°C, followed by a 60 min incubation with Anti-IP1-Cryptate and IP1-d2 at room temperature. The formation of stimulated IP1 was quantified by homogeneous time-resolved fluorescence (HTRF) measurements using a BioTek Synergy H1 microplate reader (Agilent Technologies, Basel, Switzerland). The obtained raw data for receptor activation were subjected to normalization, wherein the baseline signal was set at 0%, and the maximum signal stimulated by 5-HT at the specific receptor was established as 100%.

[7] = target: T5, human 5-HT1A receptor; test: Radioligand receptor binding, 5-HT1A; parameters: expressed in transfected cells; host or cells: HEK 293 membrane preparations; details: HEK 293 membranes, [3H]8-OH-DPAT
[8] = Metabolites in human plasma after oral psilocybin (reanalysed study samples); details: for Tmax: human, plasma, po, 30 mg
[9] = NIH/3T3 cells, IP1 accumulation, read-out: h5-HT1A Activation potency EC50 ± SD
[10] = read-out: h5-HT1A Receptor binding Ki ± SD

T1 sequence (P10635 whole entry): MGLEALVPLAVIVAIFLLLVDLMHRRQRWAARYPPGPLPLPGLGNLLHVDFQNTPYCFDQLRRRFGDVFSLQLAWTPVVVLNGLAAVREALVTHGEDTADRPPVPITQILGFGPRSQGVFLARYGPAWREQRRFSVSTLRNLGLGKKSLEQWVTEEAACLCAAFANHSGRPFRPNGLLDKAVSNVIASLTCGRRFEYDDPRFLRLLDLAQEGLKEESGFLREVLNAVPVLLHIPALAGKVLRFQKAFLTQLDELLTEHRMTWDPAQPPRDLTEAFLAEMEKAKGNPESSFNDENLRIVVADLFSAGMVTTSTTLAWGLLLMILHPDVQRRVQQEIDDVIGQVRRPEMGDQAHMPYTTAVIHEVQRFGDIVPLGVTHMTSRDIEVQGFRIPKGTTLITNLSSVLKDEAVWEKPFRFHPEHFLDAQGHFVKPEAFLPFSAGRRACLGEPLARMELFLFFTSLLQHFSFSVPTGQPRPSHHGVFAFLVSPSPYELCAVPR
T2 sequence (P08684 2-503 limits assumed): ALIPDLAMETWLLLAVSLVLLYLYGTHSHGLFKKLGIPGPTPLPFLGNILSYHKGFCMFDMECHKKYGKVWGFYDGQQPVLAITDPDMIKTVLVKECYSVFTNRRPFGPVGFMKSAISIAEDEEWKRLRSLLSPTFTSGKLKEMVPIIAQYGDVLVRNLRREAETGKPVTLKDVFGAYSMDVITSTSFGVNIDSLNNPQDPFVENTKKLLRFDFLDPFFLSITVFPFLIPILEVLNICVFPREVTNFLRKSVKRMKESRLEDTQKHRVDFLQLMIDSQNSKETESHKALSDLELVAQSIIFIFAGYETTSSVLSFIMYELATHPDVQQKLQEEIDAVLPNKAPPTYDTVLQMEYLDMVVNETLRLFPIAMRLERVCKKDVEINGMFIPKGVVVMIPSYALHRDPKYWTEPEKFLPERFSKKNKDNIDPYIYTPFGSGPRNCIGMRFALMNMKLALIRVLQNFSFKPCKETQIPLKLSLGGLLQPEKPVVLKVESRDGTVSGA

Row | Compound | metabolite concentration formed from psilocin [1] [nM] | formation of metabolite from psilocin ([2]; rec. CYP2D6) | formation of metabolite from psilocin [3] | biotransformation on incubation with HLM [4] | metabolite concentration formed from psilocin (mean ± SD) [4] [nM] | metabolite formation from psilocin in presence of clorgyline [4] | metabolite concentration formed from psilocin ([5]; 1,000 nM psilocin, rec. MAO-A) [nM] | metabolite formation from psilocin in presence of clorgyline [5] | EC50 [6, 9] [nM] | Ki [7, 10] [nM] | Tmax [8] [h] | other results
1 | O=C(O)Cc1c[nH]c2cccc(O)c12 [4-HIAA, 4-hydroxyindole-3-acetic acid] | 43.0 ± 7.9 | neither observed | neither observed | did not lead to any biotransformation | 8.5 ± 3.8 | complete inhibition | 20.1 ± 2.8 | inhibited | > 10000 | > 10000 | ~2.5 | 
2 | CN(C)CCc1c[nH]c2cccc(O)c12 [psilocin, 4-hydroxy-N,N-dimethyltryptamine] |  |  |  |  |  |  |  |  |  |  | ~2.5 | psilocin concentration (mean ± SD) ([1]; after 240 min): 829 ± 32 nM; psilocin concentration (mean ± SD) ([1]; start of incubation): 1,162 ± 146 nM; effect of targeted inhibition of specific CYP enzymes in HLM on psilocin degradation ([1]; 1,000 nM psilocin, HLM with selective CYP inhibitors): did not lead to a clear inhibition; psilocin concentration ([1]; t = 0 min): 1,141 ± 74 nM; psilocin concentration ([1]; t = 240 min): 1,096 ± 105 nM; psilocin concentration (mean ± SD) ([2]; 1,000 nM psilocin, rec. CYP2D6, t = 0 min): 937 ± 145 nM; psilocin concentration (mean ± SD) ([2]; 1,000 nM psilocin, rec. CYP2D6, t = 240 min): 21.1 ± 14.2 nM; psilocin metabolized ([2]; rec. CYP2D6): ~100%; psilocin concentration (mean ± SD) ([2]; rec. CYP2D6 with quinidine, t = 0 min): 1,081 ± 241 nM; psilocin concentration (mean ± SD) ([2]; rec. CYP2D6 with quinidine, t = 240 min): 747 ± 30 nM; decrease of psilocin concentration / psilocin metabolized ([3]; 1,000 nM psilocin, rec. CYP3A4, 240 min): 40%; psilocin concentration ([3]; rec. CYP3A4, t = 0 min): 916 ± 145 nM; psilocin concentration ([3]; rec. CYP3A4, t = 240 min): 546 ± 41 nM; psilocin metabolized ([3]; rec. CYP3A4 with ketoconazole, 240 min): 26%; psilocin concentration ([3]; rec. CYP3A4 with ketoconazole, t = 0 min): 973 ± 133 nM; psilocin concentration ([3]; rec. CYP3A4 with ketoconazole, t = 240 min): 720 ± 71 nM; change of psilocin concentration ([4]; 1,000 nM psilocin with HLM): did not visibly decrease; change of psilocin concentration ([5]; 1,000 nM psilocin, rec. MAO-A): did not visibly decrease; EC50 [6]: 1.7 ± 2.4 nM; Ki ([7]; h5-HT1A Receptor binding Ki ± SD): < 136 nM and 128 nM
3 | OCCc1c[nH]c2cccc(O)c12 [4-HTP, 4-hydroxytryptophol] | 43.4 ± 6.0 | neither observed | neither observed | did not lead to any biotransformation | 25.3 ± 6.0 | complete inhibition | 16.9 ± 2.9 | inhibited | > 10000 | > 10000 |  | detection in human plasma ([8]; 30 mg psilocybin p.o., n = 5): neither norpsilocin nor 4-HTP was detected
